The text below walks through data of US20090082451A1, “USE OF THYROID HORMONE CONVERSION INHIBITORS” (Trustees of Boston University, priority 2004, published 2009).

“Also recorded” adds a separate entry of the source.

Series [1] is described as follows: Serum total thyroxine (T4) by radioimmunoassay in topically treated mice. It counts as in vivo, CD-1 mice. Particulars: mice treated with IOP cream, relative to control mice; listed as IOP. As for the experimental part: Serum total thyroxine levels were measured with a standard radioimmunoassay kit (ICN, Orangeburg, N.Y.). Unlike other thyroid hormone kits which use anti-mouse antibodies, the ICN kit uses anti-rabbit antibodies and avoids spuriously elevated readings in mice. Thyroid hormone levels for mice fall at the low end of the human range so the human standards included in the kit were used.

Series [2] concerns Human prostate (HPV) cells. It counts as cell-based. Particulars: overnight incubation; 10 μl of 1.5 mM stock per 500 μl medium; ±SEM. As for the experimental part:
(§1) Human prostate (HPV) cells were grown under standard conditions. When the cultures reached 40% confluence, the cells were fed basal medium alone for 24 hours and then incubated overnight in medium containing a test substance or sham. The cells were then treated with saturating quantities of ^3H-thymidine (New England Nuclear, Boston, Mass.); DNA was precipitated with 5% perchlorate and relative incorporated thymidine was assessed with a beta counter. Experiments were performed in quadruplicate and averaged. Results reported represent a minimum of three separate quadruplicate experiments.
(§2) The reagents used for tissue culture were iopanoic acid (Sigma, St. Louis, Mo.), sodium ipodate (Fitzgerald Industries International, Flanders, N.J.), and propranolol (Sigma, St. Louis, Mo.). Reagents were dissolved into modestly basic stock solutions to the following final concentrations: 0.025 mM NaOH, 0.2 M NaCl, 1.5 mM reagent. Each experiment used 10 μl of stock reagent (or sham) per 500 μl of medium. For FIGS. 13-18, the “low” concentration is 3 μM for each reagent, and the “high” concentration was 30 μM for each reagent.

The subject of series [3] is human epidermal keratinocytes. Description: Human epidermal keratinocyte proliferation, 3H-thymidine incorporation. The conditions noted are these: overnight incubation; 10 μl of 1.5 mM stock per 500 μl medium; ±SEM. The format is cell-based. As for the experimental part:
as §1, with “keratinocytes” for “prostate (HPV) cells”, “in primary culture on a support matrix derived from irradiated fibroblasts.” for “under standard conditions.”
as §2

A further series deals with epidermal proliferation. Kind of series: Topical iopanoic acid cream in mice: epidermal thickness and BrdU incorporation. The format is in vivo, CD-1 mice. As for the experimental part:
A topical iopanoic acid (IOP) cream was prepared by mixing IOP (Sigma, St. Louis, Mo.) into a liposome vehicle (Novasome A, IGI inc., New Jersey) previously described (Safer 2001, Safer 2003, Safer 2005). Each mouse received 30 μl of the liposome vehicle applied directly to a 3×3 cm area of shaved skin on the animal's backs. The preparation was applied daily and not removed.
The treatment groups received cream containing 6 mg IOP daily. The control groups were treated with daily application of vehicle alone.
Five week old CD-1 mice were randomized into 2 groups (FIG. 1). The groups had 6 mice each and were evaluated in a crossover study. Each mouse in the crossover study was evaluated twice: once after a 6 mg daily IOP treatment and once after treatment with vehicle alone. Six mice received IOP first followed by a 3 month wash-out/healing completion period. The animals were then evaluated after treatment with topical vehicle alone. Six mice started with vehicle alone and received the IOP treatment after the 3 month wash-out/healing completion period.
All topically treated mice were caged separately to avoid animals receiving doses from their neighbors during grooming. The cream was applied to a midline cephalad region on the animals' backs to minimize the impact of personal grooming on dosing.
Epidermal proliferation was assessed by measuring both epidermal thickness and 5-bromo-2′-deoxyuridine (BrdU, Boehringer Mannheim, Mannheim, Germany) incorporation into DNA. At the completion of the protocols noted, animals were biopsied with full thickness dorsal skin samples were taken. Three hours prior to biopsy, each mouse had received intraperitoneal BrdU as previously described (Safer 2001). Skin samples were fixed in formalin and embedded in paraffin. From each paraffin block, […] sections were made and stained with hematoxylin and eosin (H&E). Epidermal thickness was measured in 10 random locations for each mouse. Additional 5 μm skin histology sections from the above paraffin blocks were stained for BrdU as previously described (Safer 2001). BrdU data are reported as the number of cell nuclei stained/[…] epidermis.

The test system of series [4] is Opossum kidney (OK) cells. Description: Opossum kidney cell proliferation, 3H-thymidine incorporation. It counts as cell-based. The conditions noted are these: overnight incubation; 10 μl of 1.5 mM stock per 500 μl medium; ±SEM. As for the experimental part:
Opossum kidney (OK) cells were grown under standard conditions. When the cultures reached 40% confluence, the cells were fed basal medium alone for 24 hours and then incubated overnight in medium containing a test substance or sham. The cells were then treated with saturating quantities of ^3H-thymidine (New England Nuclear, Boston, Mass.); DNA was precipitated with 5% perchlorate and relative incorporated thymidine was assessed with a beta counter. Experiments were performed in quadruplicate and averaged. Results reported represent a minimum of three separate quadruplicate experiments.
as §2
A general note: Uptake of a labelled nucleoside into DNA is a usual measure of proliferation.

For series [5], the system named is Monkey kidney (CV-1) cells. Kind of series: Monkey kidney cell proliferation, 3H-thymidine incorporation. It counts as cell-based. The conditions noted are these: overnight incubation; 10 μl of 1.5 mM stock per 500 μl medium; ±SEM. As for the experimental part:
Monkey kidney (CV-1) cells were grown under standard conditions. When the cultures reached 40% confluence, the cells were fed basal medium alone for 24 hours and then incubated overnight in medium containing a test substance or sham. The cells were then treated with saturating quantities of ^3H-thymidine (New England Nuclear, Boston, Mass.); DNA was precipitated with 5% perchlorate and relative incorporated thymidine was assessed with a beta counter. Experiments were performed in quadruplicate and averaged. Results reported represent a minimum of three separate quadruplicate experiments.
as §2

Where [6] appears, read: topical cream, 6 mg IOP daily, vs vehicle, p<0.05.

Take `CCC(Cc1c(I)cc(I)c(N)c1I)C(=O)O` (centres unmarked) [iopanoic acid]: the “serum T4 levels” value in series [1] is recorded as “remained steady; also recorded: not changed”. The “inhibition of proliferation of human prostate cells relative to control cultures” value in series [2] turned out to be 26±4%. The “inhibition of proliferation of human epidermal keratinocytes relative to control cultures” value in series [3] was 61±9%. The epidermal proliferation result with epidermal proliferation (Group 1 mice: control vehicle first, then IOP (FIG. 2)) is reported as “significantly diminished”. Besides, the epidermal proliferation entry with epidermal proliferation (Group 2 mice: IOP first, then control vehicle (FIG. 3)) was “significantly diminished”. For the same molecule, in the series with epidermal proliferation (setting [6]), the “less epidermal BrdU staining than control mice” value stood at 30% and the “thinner epidermis than control mice” value is listed as 20%.

Consider `O=C(NCC(O)CO)c1c(I)c(C(=O)NCC(O)CO)c(I)c(N(CCO)C(=O)CO)c1I` (centres unmarked) [ioversol], for which the “inhibition of proliferation of human prostate cells relative to control cultures” value in series [2] came to 22%.

`CN(C)/C=N/c1c(I)cc(I)c(CCC(=O)[O-])c1I.[Na+]` [ipodate sodium]: in series [2], the “inhibition of proliferation of human prostate cells relative to control cultures” value amounted to 30±5%. Besides, the “inhibition of proliferation of human epidermal keratinocytes relative to control cultures” value in series [3] is recorded as 14±6%.

Regarding `CC(C)NCC(O)COc1cccc2ccccc12` (centres unmarked) [propranolol], the “inhibition of proliferation of opossum kidney cells relative to control cultures” value in series [4] was 88±10%. Also, the “inhibition of proliferation of human prostate cells relative to control cultures” value in series [2] was found to be 84±8%. Also, the “inhibition of proliferation of human epidermal keratinocytes relative to control cultures” value in series [3] was 62±3%. In addition, the “inhibition of proliferation of monkey kidney cells relative to control cultures” value in series [5] was 82±5%.
